Data on 15 molecules can be found in patent US7261876B2, “Multivalent constructs for therapeutic and diagnostic applications” (Bracco International BV, priority 2002, dated 2007).

Entries after “also recorded” stand apart in the source; their conditions may differ. No end group written: not given here.

Assay [1] concerns SW-480 human colon carcinoma cells. The assay is described as follows: In vivo xenograft tumor model. The note with it: Study Day 22; 6.0 mg/kg IV, five doses.
Method: Female athymic nude mice (Crl:NU/NU-nuBR) at 6–8 weeks of age were used in this study. […] Test compound and vehicle were administered intraperitoneally (IP), Cisplatin was administered intravenously (IV). Tumor measurements were recorded twice weekly using hand-held calipers. Mice were monitored daily for signs of toxicity and morbidity. At study termination, animals were euthanized by carbon dioxide overdose and necropsied for tissue collection.
A total of nine (9) groups were used in this study. Each group contained ten (10) tumor-bearing mice. Groups 1 and 2 contained untreated and vehicle treated negative control mice, respectively. […] Group 9 contained mice that received cisplatin, a standard chemotherapeutic compound as a positive control.
Dosing began the same day that animals were randomly sorted into groups (Study Day 7). Each dose was removed from the dose vial using aseptic technique for each animal and the injection site was wiped with an alcohol swab prior to dose administration. […]
Clinical Observations of each animal were performed and recorded at least once daily for toxicity, morbidity and mortality. […]
In accordance with the protocol, tumor measurements were taken twice weekly throughout the study by measuring the length and width of tumors with calibrated calipers. […] Tumor weights were calculated using the following formula: mg=(L×W^2)/2. […]
In assay [2] the test system is HUVECs. Briefly: Endothelial cell proliferation assay, BrdU detection. Type of assay: cell-based, human. The following applies: 10 μg/mL, in the presence of VEGF (30 ng/mL). The protocol:
Briefly, freshly isolated HUVECs (between p3–6) were cultured in RPMI+10% FCS+1% antibiotics+1% 1-glutamin+0.4% BBE (bovine brain extract) and seeded per well, 5000–10000/well in 100 μL. The cells were allowed to recover for 24 h prior to use. Then the cells were washed with PBS twice and treated for 48 h with anti-VEGF antibody (positive control) or peptides A, B and C (0.1 and 10 ug/mL) in RPMI+0.1% BSA+1% 1-glutamin. The following 6 variables were tested in 2 series (n=4): • Series I: w/o VEGF • Series II: w/VEGF (30 ng/mL) • 1. Standard medium: RPMI+10% FCS+1% antibiotics+1% 1-glutamin+0.4% BBE • 2. Negative control 1: RPMI (true starvation) • 3. Negative control 2: RPMI+0.1% BSA+1% 1-glutamin • 1. Positive control: anti-VEGF 10 μg/ml in RPMI+0.1% BSA+1% 1-glutamin • 5. 0.1 μg/ml KDR peptides in RPMI+0.1% BSA+1% 1-glutamin • 6. […] Note: Background binding was determined by omitting the anti-BrdU antibody in 4 wells with control cells (cultured in complete medium; EBM+BulletKit) and by complete labeling of cells that was not exposed to BrdU.

For assay [3], the system named is VEGF-induced migration of HUVECs. Briefly: HUVEC migration/invasion assay. Type of assay: cell-based, human.
Assay [4] has as its target T1, KDR-transfected 293H cells (Homo sapiens, UniProt P35968).
T1 construct: Both PCR products were digested with Not1 and ligated together to create the full-length receptor; V5-His (encoded by the vector); expressed in transfected cells; host or cells: 293H cells (Invitrogen cat. # 11631), transient lipofectamine 2000 transfection
The assay is described as follows: Binding of peptide-conjugated microbubbles to KDR-transfected cells. Type of assay: cell-based. The protocol: 293H cells were transfected with KDR cDNA. […] Competition was also performed using a non-binding control peptide as a competing compound.
293H cells were transfected with KDR cDNA.
D23 (a dimeric construct of P6- and P12-derived sequences) was conjugated with a preparation of microbubbles as above described, according to the following methodology. The thioacetylated peptide ([…]) was dissolved in 20 μl DMSO and then diluted in 1 ml of Phosphate Buffer Saline (PBS). This solution was mixed to the N-MPB-functionalized microbubbles dispersed in 18 ml of PBS-EDTA 10 mM, pH 7.5 and 2 ml of deacetylation solution (50 mM sodium phosphate, 25 mM EDTA, 0.5 M hydroxylamine.HCl, pH 7.5) was added. The headspace was filled with C4F10/Air (50/50) and the mixture was incubated for 2.5 hours at room temperature under gentle agitation (rotating wheel), in the dark. Conjugated bubbles were washed by centrifugation. Similarly, the monomer peptides making up D23 were separately conjugated to two different microbubble preparations according to the methodology described above.

Assay [5] addresses T2, KDR/VEGF complex (Homo sapiens, UniProt P35968).
T2 construct: Both PCR products were digested with Not1 and ligated together to create the full-length receptor; V5-His (encoded by the vector); expressed in transfected cells; host or cells: 293H cells, transiently transfected; VEGF added exogenously
The assay is described as follows: Cell based assay for binding of KDR/VEGF complex binders (peptide-125I-streptavidin complexes). The following applies: in the presence of VEGF. From the text:
Furthermore, these peptides, as well as other peptides which bind KDR/VEGF complex may advantageously be included in heteromultimers of the invention.

Assay [6] has as its target T3, KDR-expressing 293H cells (Homo sapiens, UniProt P35968).
T3 construct: Both PCR products were digested with Not1 and ligated together to create the full-length receptor; V5-His (encoded by the vector); expressed in transfected cells; host or cells: 293H cells (Invitrogen cat. # 11631), transient lipofectamine 2000 transfection
The assay is described as follows: Bead-binding assay, peptide-conjugated fluorescent beads. The note with it: Neutravidin-coated beads, 40% FBS. Type of assay: cell-based. The method, then:
As a positive control, biotinylated anti-KDR antibody was incubated with the Neutravidin-coated beads as above, except that 0.03 mg of the biotinylated antibody preparation in PBS (Gibco 14190-136) was used instead of peptide solution. Beads can be stored at 4° C. until needed for up to 1 week.
293H cells were transfected using the protocol described in Example 6. Transfection was done in black/clear 96-well plates (Becton Dickinson, cat. # 354640). The cells in one half of the plate (48 wells) were mock-transfected (with no DNA) and those in the other half of the plate were transfected with KDR cDNA. The cells were 80–90% confluent at the time of transfection and completely confluent the next day, at the time of the assay; otherwise the assay was aborted.
From the above bead preparations, 0.12 mL was spun for 10 minutes at 2000 rpm in a microcentrifuge at room temperature. The supernatant was removed and 0.06 mL of MES pH 6.0 was added. Each bead solution was then vortexed and sonicated in a water bath 15 min. To 1.47 mL of DMEM, high glucose (GIBCO 11965-084) with 1×MEM Non-Essential Amino Acids Solution (NEAA) (GIBCO 11140-050) and 40% FBS (Hyclone SH30070.02) 0.03 mL of the sonicated bead preparations was added. 96-well plates seeded with 293H cells which have been mock-transfected in columns 1 to 6, and KDR-transfected in columns 7 to 12 (as described above), were drained and washed once with DMEM, high glucose with 1×NEAA and 40% FBS. To each well was added 0.1 mL of bead solution, six wells per bead preparation. […] After draining, 0.1 mL of PBS was added per well. The plates were then read on a Packard FluoroCount fluorometer at excitation 550 nm/emission 620 nm. Unconjugated Neutravidin beads were used as a negative control while beads conjugated with a biotinylated anti-KDR antibody were used as the positive control for the assay.
To calculate the number of beads bound per well, a standard curve with increasing numbers of the same fluorescent beads was included in each assay plate. The standard curve was used to calculate the number of beads bound per well based on the fluorescence intensity of each well.

The target in assay [7] is T4, KDR expressed by transfected 293H cells (Homo sapiens, UniProt P35968).
T4 construct: Both PCR products were digested with Not1 and ligated together to create the full-length receptor; V5-His (encoded by the vector); expressed in transfected cells; host or cells: 293H cells (Invitrogen cat. # 11631), transient lipofectamine 2000 transfection
T4 sequence (P35968 20-1356): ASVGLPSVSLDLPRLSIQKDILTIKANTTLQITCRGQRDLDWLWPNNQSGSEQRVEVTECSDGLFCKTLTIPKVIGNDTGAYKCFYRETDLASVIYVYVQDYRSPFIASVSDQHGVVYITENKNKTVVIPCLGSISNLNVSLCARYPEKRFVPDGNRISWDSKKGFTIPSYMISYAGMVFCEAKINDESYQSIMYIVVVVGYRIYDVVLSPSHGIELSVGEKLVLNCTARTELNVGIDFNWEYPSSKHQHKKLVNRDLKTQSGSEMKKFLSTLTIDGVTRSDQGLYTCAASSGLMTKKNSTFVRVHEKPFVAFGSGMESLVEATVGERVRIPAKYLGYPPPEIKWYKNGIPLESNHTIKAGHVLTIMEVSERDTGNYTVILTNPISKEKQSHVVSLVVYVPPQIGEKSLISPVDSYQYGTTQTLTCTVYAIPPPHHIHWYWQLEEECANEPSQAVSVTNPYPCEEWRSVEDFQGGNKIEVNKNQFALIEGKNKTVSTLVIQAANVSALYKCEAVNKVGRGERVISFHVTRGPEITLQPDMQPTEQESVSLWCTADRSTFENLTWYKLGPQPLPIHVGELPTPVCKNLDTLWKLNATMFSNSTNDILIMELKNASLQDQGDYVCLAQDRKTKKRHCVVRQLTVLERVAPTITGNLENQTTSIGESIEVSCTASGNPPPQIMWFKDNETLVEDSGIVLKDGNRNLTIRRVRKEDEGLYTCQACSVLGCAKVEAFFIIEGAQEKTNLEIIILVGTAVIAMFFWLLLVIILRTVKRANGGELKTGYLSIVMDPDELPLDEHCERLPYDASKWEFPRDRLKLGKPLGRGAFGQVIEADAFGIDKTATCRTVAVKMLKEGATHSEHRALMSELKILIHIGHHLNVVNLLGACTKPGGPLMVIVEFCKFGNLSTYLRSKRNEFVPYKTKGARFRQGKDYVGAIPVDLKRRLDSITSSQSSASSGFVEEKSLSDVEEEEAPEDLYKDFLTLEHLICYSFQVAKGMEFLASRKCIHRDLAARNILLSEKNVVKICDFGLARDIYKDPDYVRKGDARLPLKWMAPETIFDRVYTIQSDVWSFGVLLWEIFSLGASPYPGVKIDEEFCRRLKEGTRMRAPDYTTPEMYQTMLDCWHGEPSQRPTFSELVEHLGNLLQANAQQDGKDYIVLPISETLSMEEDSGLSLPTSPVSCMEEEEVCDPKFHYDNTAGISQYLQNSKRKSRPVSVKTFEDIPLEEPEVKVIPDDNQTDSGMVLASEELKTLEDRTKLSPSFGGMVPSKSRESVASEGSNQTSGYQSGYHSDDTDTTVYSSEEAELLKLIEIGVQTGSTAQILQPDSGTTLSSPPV
Briefly: Competition with 125I-labeled VEGF for binding to KDR-transfected 293H cells.
Method: Once prepared, the solutions were kept on ice until ready to use.
Cells were used 24 h after transfection, and to prepare the cells for the assay, they were washed 3 times with room temperature M199 medium and placed in the refrigerator. […] After incubating at 4° C. for 2 h, the plates were washed 5 times with cold binding buffer, gently blotted dry and checked under a microscope for cell loss. 100 μL of solubilizing solution (2% Triton X-100, 10% Glycerol, 0.1% BSA) was added to each well and the plates were incubated at room temperature for 30 minutes. The solubilizing solution in each well was mixed by pipeting up and down, and transferred to 1.2 mL tubes. Each well was washed twice with 100 μL of solubilizing solution and the washes were added to the corresponding 1.2 mL tube.
After washing the cells, the bound radioactivity was quantitated on a gamma counter.

In assay [8] the target is T5, KDR transfected cells (Homo sapiens, UniProt P35968).
T5 construct: Both PCR products were digested with Not1 and ligated together to create the full-length receptor; V5-His (encoded by the vector); expressed in transfected cells; host or cells: 293H cells (Invitrogen cat. # 11631), transient lipofectamine 2000 transfection
T5 sequence (P35968 20-1356): as above
Briefly: Competition of free peptides with P5-XB/avidin HRP complex (Experiment E). Type of assay: binding. The following applies: P5-XB/avidin HRP 3.33 nM; free peptide 0–[…]. From the text: If the peptides bind to the same site on KDR, they would likely compete with each other for binding to KDR, whereas if the peptides bind to different sites, there should be no competition between the peptides for binding to KDR.

The target of assay [9] is T6, KDR-expressing cells (Homo sapiens, UniProt P35968).
T6 construct: Both PCR products were digested with Not1 and ligated together to create the full-length receptor; V5-His (encoded by the vector); expressed in transfected cells; host or cells: 293H cells (Invitrogen cat. # 11631), transient lipofectamine 2000 transfection
T6 sequence (P35968 20-1356): as above
Briefly: Displacement assay competing with P12-XB/streptavidin-HRP complex for binding to KDR-expressing cells. The note with it: complex concentration 5.5 nM.
Method: After determining the specific binding under each experimental condition, the IC50 for each peptide was determined (where possible).

Assay [10] has as its target T1, KDR-transfected 293H cells. The assay is described as follows: Binding of radiolabeled (Tc, I, Lu) peptides to KDR-transfected 293H cells.

T2 sequence (P35968 20-1356): as above
T2 sequence (P15692 27-191 isoform P15692-4 partner): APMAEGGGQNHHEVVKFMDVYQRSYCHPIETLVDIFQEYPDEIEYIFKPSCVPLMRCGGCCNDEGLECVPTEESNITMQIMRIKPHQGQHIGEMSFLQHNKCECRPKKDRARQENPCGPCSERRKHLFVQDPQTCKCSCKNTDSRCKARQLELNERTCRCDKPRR
T3 sequence (P35968 20-1356): as the sequence (P35968 20-1356) above
T1 sequence (P35968 20-1356): as above

As for `N.N.[Cl][Pt][Cl]` [Cisplatin], the mean tumor weight in assay [1] worked out at 995 mg.
`CC(=O)N[C@@H](C)C(=O)NCC(=O)N1CCC[C@H]1C(=O)N[C@H](C(=O)N[C@@H](Cc1c[nH]c2ccccc12)C(=O)N[C@H]1CSSC[C@@H](C(=O)N[C@@H](Cc2c[nH]c3ccccc23)C(=O)N[C@@H](CC(C)C)C(=O)N[C@@H](Cc2ccccc2)C(=O)NCC(=O)N[C@H](C(=O)NCC(=O)NCC(=O)NCC(=O)N[C@@H](CCCCN)C(N)=O)[C@@H](C)O)NC(=O)[C@H](Cc2ccc(O)cc2)NC(=O)[C@H](Cc2ccc(O)cc2)NC(=O)[C@H](Cc2c[nH]c3ccccc23)NC(=O)[C@H](CC(=O)O)NC(=O)[C@H](CC(=O)O)NC(=O)[C@H](CCC(=O)O)NC1=O)[C@@H](C)O` [P12-G, Ac-AGPTWC*EDDWYYC*WLFGT-GGGK-NH2]: in assay [2], the “inhibition of HUVEC proliferation” value is “does not inhibit proliferation”.
In [3] (3 micromolar), `CC(C)c1cc(/C=C(\C#N)C(=O)NCCCc2ccccc2)cc(C(C)C)c1O` [SU1498, (E)-3-(3,5-Diisopropyl-4-hydroxyphenyl)-2-[(3-phenyl-n-propyl)aminocarbonyl]acrylonitrile] yielded a VEGF-induced migration blocked of 47%.
In the case of AGPTWCEDDWYYCWLFGT [P12], the “competition of conjugated microbubbles by free peptide” value in assay [4] (Experiment A, free peptide 100 μM to 3 nM) was “competed off by the corresponding free KDR-specific peptide”.
“Ac-AGMPWCVEKDHWDCWWWGTGGGK(Biotin-JJ)-NH2 [P31-XB]”: the “specific binding of peptide-125I-streptavidin complex (KDR-mock)” value in [5] is recorded as “Only the complex containing P30-XB showed specific binding”.
Still for that read-out and setting: the value for “Ac-AGPGPCKGYMPHQCWYMGTGGGK(Biotin-JJ)-NH2 [P30-XB]” was “specifically bound to KDR-transfected 293H cells; also recorded: showed specific binding”.
As for “Ac-AGPKWC*EEDWYYC*MITGT-GGGK-(Biotin)-NH2 [P5-B]”, in assay [6], the “binding of ligand-coated fluorescent beads to KDR-transfected vs mock-transfected cells” value (shortened to “binding … vs mock-transfected cells”) was “did not bind to the KDR-transfected cells significantly more than to mock-transfected cells”.
With “Ac-AGPKWC*EEDWYYC*MITGTGGGK-(Biotin-JJ-)-NH2 [P5-XB]”, in [6], the “binding … vs mock-transfected cells” value is “Specific binding to KDR was detected”. The “percentage inhibition of 125I-labeled VEGF binding” value was 24.41±8.43% in assay [7] (0.3 μM peptide) and 47.95±5.09% in [7] (30 μM peptide). Also, the “competition with P5-XB/avidin HRP solution for binding” value in assay [8] was “does compete”.
For the molecule “Ac-AGYGPCKNMPPWMCWHEGTGGGK(Biotin-JJ)-NH2 [P32-XB]”, the “specific binding of peptide-125I-streptavidin complex (KDR-mock)” value in [5] was “Only the complex containing P30-XB showed specific binding”.
With Ac-DWYYGGGK-NH2 [F1], in [9], the “inhibition of P12-XB streptavidin-HRP complex binding” value is recorded as “IC50 below one micromolar”.
For “Ac-ERVTTCWPGEYGGVECYSVAY-NH2 (cysteine pairing not given here) [PG-1, reference compound]”, in assay [7], the “competition with 125I-VEGF for binding to KDR-transfected cells” value is “competed about equally well”. For the same molecule, the “VEGF-stimulated migration” value in [3] (up to 62.5 nM) is given as “had no effect on VEGF-stimulated migration”.
With “Ac-GDSRVC*WEDSWGGEVC*FRYDP-GGGK-(Biotin)-NH2 [P6-B]”, the “binding … vs mock-transfected cells” value in [6] is recorded as “showed greater binding to KDR-transfected cells”.
In the case of “Ac-GDSRVC*WEDSWGGEVC*FRYDPGGGK-(Biotin-JJ-)-NH2 [P6-XB]”, in assay [8], the “competition with P5-XB/avidin HRP solution for binding” value is recorded as “do not compete”.
Take GDSRVCWEDSWGGEVCFRYDP [P6]: the “binding … vs mock-transfected cells” value in assay [6] is reported as “Specific binding to KDR was detected”. For the same molecule, the “binding of conjugated microbubbles” value in assay [4] (Experiment C, 50% human serum) was “bound poorly”.
As to “Tc-labeled D18: 99mTc-labeled scrambled dimer D18 (peptide 1 APGTWCDYDWEYCWLGTFGGGK; peptide 2 GVDFRCEWSDWGEVGCRSPDYGGGK; not fully specified (bridges); cysteine pairing not given here; also: 99mTc label, site not given here, heterodimer, linkage not given here)”, the “binding of radiolabeled compound to KDR transfected vs mock transfected 293H cells” value in assay [10] is reported as “displayed no affinity for either mock-transfected or KDR-transfected 293H cells”.
